In experiment [1] the test system is C. albicans E81022 strain. As to the kind of experiment: Anti-Candida activity (MIC measurement). The format is cell-based. Conditions: E81022STRAIN, MIC by visual inspection, C. albicans E81022, 48 hours at 30 to 35° C. As to the method:
(§1) For the C. albicans E81022 strain, a fungal suspension from a standing culture for 48 hours at 30° C. in a Sabouraud dextrose liquid culture medium (SDB) was diluted 10,000-fold with a 1.3-fold concentrated SDB to adjust to a fungal suspension of 1 to 2×10^4 cells/ml. For the A. fumigatus Tsukuba strain, −80° C. stored strain was diluted 1,000-fold with a 1.3-fold concentrated SDB to adjust to a fungal suspension of 2 to 3×10^3 cells/ml.
(§2) Using a U-bottomed 96 well plate, 8 samples/plate (A to H) of sample dilution solutions were prepared. On the 3rd row of each plate was dispensed 240 μl of sterilized and distilled water, and on the 2nd and 4th to 12th rows were dispensed 125 μl of 4% dimethylsulfoxide solution. Weighed sample was dissolved in dimethylsulfoxide to prepare a 2.5 to 20 mg/ml solution, 10 μl of this solution was then added to the 3rd row of the prepared plate, and 10 steps of two-fold step dilutions (125 μl of solution+125 μl of 4% dimethylsulfoxide) were performed on the plate.
(§3) The fungal suspension preprared in (1) was used in the amount of 75 μl/well to inoculate a V-bottomed or flat-bottomed 96 well plate containing 25 μl/well of test compound dilution solution prepared in (2), and a standing culture was carried out aerobically for 48 hours at 30 to 35° C.

Experiment [2] has as its system A. fumigatus Tsukuba strain. In words: Anti-Aspergillus activity (MIC measurement). The conditions noted are these: MIC by visual inspection, 48 hours at 30 to 35° C. The format is cell-based. As to the method: as §1, §2, §3

In brackets after ≈: the same amount, converted by molar mass.

The term MIC denotes the lowest concentration found to suppress growth. Low readings indicate inhibition by little substance, high ones a need for much substance. For the molecule `Nc1nc(Cl)ccc1C(=O)NCc1ccc(Oc2ccccc2)s1` [Example A-101, 2-Amino-6-chloro-N-(5-phenoxy-thiophen-2-ylmethyl)-nicotinamide], the MIC in experiment [1] was determined as 0.1 µg/mL (≈ 0.278 µM); in experiment [2] it was 0.39 µg/mL (≈ 1.08 µM).

For `O=C(Cc1cccc(Oc2ccccc2)c1)Nc1ccc2ncccc2c1` [Example E-19, 2-(3-Phenoxy-phenyl)-N-quinolin-6-yl-acetamide], the MIC in experiment [1] amounted to 0.78 µg/mL (≈ 2.2 µM); in experiment [2], 1.56 µg/mL (≈ 4.4 µM).

For the molecule `Nc1ncccc1C(=O)NCc1ccc(CCNc2ccccc2)o1` [Example A-8, 2-Amino-N-(5-(2-phenylamino-ethyl)-furan-2-ylmethyl)-nicotinamide], the MIC in experiment [1] was 3.13 µg/mL (≈ 9.3 µM); in experiment [2], 6.25 µg/mL (≈ 18.6 µM).

As for `O=C(NCc1ccc(Oc2ccccc2)s1)c1ccc2nccn2c1` [Example Q-7, Imidazo[1,2-a]pyridine-6-carboxylic acid (5-phenoxy-thiophen-2-ylmethyl)-amide], the MIC came to 0.39 µg/mL (≈ 1.12 µM) in experiment [1] and 6.25 µg/mL (≈ 17.9 µM) in experiment [2].

`O=C(NCc1ccc(Cc2cccc(Cl)c2)s1)c1ccc2ncccc2c1` [Example E-71, Quinoline-6-carboxylic acid (5-(3-chlorobenzyl)-thiophen-2-ylmethyl)-amide]: the MIC in experiment [1] was determined as 0.2 µg/mL (≈ 0.509 µM); in experiment [2], 1.56 µg/mL (≈ 3.97 µM).

With `O=C(NCc1ccc(OCc2ccccc2)cc1)c1ccc2ncccc2n1` [Example D-2, [1.5]Naphthylidine-2-carboxylic acid 4-benzyloxybenzylamide], the MIC in experiment [1] and in experiment [2] was 0.78 µg/mL (≈ 2.11 µM) in each case.

On to `COc1ccc(C(=O)NCc2ccc(Oc3ccccc3)s2)c(N)n1` [Example A-116, 2-Amino-6-methoxy-N-(5-phenoxy-thiophen-2-ylmethyl)-nicotinamide], for which the results for the MIC in experiment [1] and in experiment [2] were 0.39 µg/mL (≈ 1.1 µM) and 3.13 µg/mL (≈ 8.81 µM), respectively.

`Nc1nc(NCc2ccco2)ccc1C(=O)NCc1ccc(Oc2ccccc2)s1` [Example A-82, 2-Amino-6-(furfurylamino)-N-(5-phenoxy-thiophen-2-ylmethyl)-nicotinamide]: the values for the MIC in experiment [1] and in experiment [2] were 0.2 µg/mL (≈ 0.476 µM) and 1.56 µg/mL (≈ 3.71 µM), respectively.

Take `c1ccc(COc2ccc(CNc3ccc4ncccc4c3)cc2)cc1` [Example W-2, (4-Benzyloxy-benzyl)-quinolin-6-yl-amine]: the MIC stood at 1.56 µg/mL (≈ 4.58 µM) in experiment [1] and 0.78 µg/mL (≈ 2.29 µM) in experiment [2].

Turning to `Nc1ccc(C(=O)NCc2ccc(OCc3ccccc3)cc2)cn1` [Example A-39, 6-Amino-N-(4-benzyloxybenzyl)-nicotinamide], the MIC in experiment [1] and in experiment [2] was 1.56 µg/mL (≈ 4.68 µM) in each case.

In the case of `Nc1nc(NCC(=O)O)ccc1C(=O)NCc1ccc(Oc2ccccc2)s1` [Example A-99, (6-Amino-5-((5-phenoxy-thiophen-2-ylmethyl)-carbamoyl)-pyridin-2-ylamino)-acetic acid], the figures for the MIC in experiment [1] and in experiment [2] were 3.13 µg/mL (≈ 7.86 µM) and 6.25 µg/mL (≈ 15.7 µM), respectively.

For the molecule `c1ccc(COc2ccc(NCc3ccc4ncccc4c3)cc2)cc1` [Example W-1, (4-Benzyloxy-phenyl)-quinolin-6-ylmethyl-amine], the MIC in experiment [1] came to 0.39 µg/mL (≈ 1.15 µM); in experiment [2] it was 0.78 µg/mL (≈ 2.29 µM).

`Nc1nc2c(cc1C(=O)NCc1ccc(Oc3ccccc3)s1)CCC2` [Example C-1] came in with an MIC in experiment [1] of 0.1 µg/mL (≈ 0.274 µM).

Regarding `O=C(NCc1ccc(Oc2ccccc2)s1)c1ccc2ncsc2c1` [Example L-7, Benzothiazole-6-carboxylic acid (5-phenoxythiophen-2-ylmethyl)-amide], the MIC in experiment [1] came to 0.1 µg/mL (≈ 0.273 µM); in experiment [2], 0.78 µg/mL (≈ 2.13 µM).

For the molecule `Nc1ncncc1C(=O)NCc1ccc(Oc2ccccc2)s1` [Example B-1, 4-Amino-pyrimidine-5-carboxylic acid (5-phenoxy-thiophen-2-ylmethyl)-amide], the results for the MIC in experiment [1] and in experiment [2] were 3.13 µg/mL (≈ 9.59 µM) and 6.25 µg/mL (≈ 19.1 µM), respectively.

As to `O=C(NCc1cccc(Oc2ccccc2)c1)c1ccc2nccnc2c1` [Example I-1, Quinoxaline-6-carboxylic acid 3-phenoxybenzylamide], the MIC in experiment [1] is 0.78 µg/mL (≈ 2.19 µM); in experiment [2], 1.56 µg/mL (≈ 4.39 µM).

As to `O=C(NCc1ccc(OCc2ccccc2)cc1)c1ccc2ncccc2c1` [Example E-8, quinoline-6-carboxylic acid 4-benzyloxybenzylamide], the MIC in experiment [1] and in experiment [2] was 0.2 µg/mL (≈ 0.543 µM) each time.

Take `Nc1ncccc1C(=O)NCc1ccc(Cc2ccccc2)o1` [Example A-5, 2-Amino-N-(5-benzyl-furan-2-ylmethyl)-nicotinamide]: the MIC in experiment [1] was 0.2 µg/mL (≈ 0.651 µM); in experiment [2] it was 0.78 µg/mL (≈ 2.54 µM).

As to `O=C(NCc1ccc(OCc2cccc(F)c2)cc1)c1ccc2ncsc2c1` [Example L-4, Benzothiazole-6-carboxylic acid 4-(3-fluoro-benzyloxy)-benzylamide], the MIC in experiment [1] and in experiment [2] was 0.2 µg/mL (≈ 0.51 µM) in each case.

As for `Nc1nc(OCCO)ccc1C(=O)NCc1ccc(Oc2ccccc2)s1` [Example A-112, 2-Amino-6-(2-hydroxyethoxy)-N-(5-phenoxy-thiophen-2-ylmethyl)-nicotinamide], the MIC in experiment [1] was found to be 3.13 µg/mL (≈ 8.12 µM); in experiment [2] it was 6.25 µg/mL (≈ 16.2 µM).

`Nc1ccc(NCCNc2ccc(C(=O)NCc3ccc(Oc4ccccc4)s3)c(N)n2)cc1` [Example A-92, 2-Amino(2-(4-amino-phenylamine)-ethylamino)-N-(5-phenoxy-thiophen-2-ylmethyl)-nicotinamide] had an MIC in experiment [1] of 3.13 µg/mL (≈ 6.6 µM).

For `Cc1sc(CNC(=O)c2cccnc2N)cc1Oc1ccccc1` [Example A-170, 2-Amino-N-(5-methyl-4-phenoxy-thiophen-2-ylmethyl)-nicotinamide], in experiment [1], the MIC is 0.78 µg/mL (≈ 2.3 µM).

Consider `O=C(NCc1ccn(Cc2ccccc2)c1)c1ccc2ncccc2c1` [Example E-57, Quinoline-6-carboxylic acid (1-benzyl-1H-pyrrol-3-ylmethyl)-amide], for which the MIC stood at 0.2 µg/mL (≈ 0.586 µM) in experiment [1] and 6.25 µg/mL (≈ 18.3 µM) in experiment [2].

Regarding `O=C(NCc1ccc(Oc2ccccc2)s1)c1cnc2ccsc2c1` [Example U-2, Thieno[3,2-b]pyridine-6-carboxylic acid (5-phenoxy-thiophen-2-yl methyl)-amide], the MIC in experiment [1] worked out at 0.78 µg/mL (≈ 2.13 µM); in experiment [2], 3.13 µg/mL (≈ 8.54 µM).

For the molecule `O=C(NCc1ccc(Nc2ccccc2)cc1)c1ccc2ncccc2c1` [Example E-25, Quinoline-6-carboxylic acid 4-phenylamino-benzylamide], the MIC in experiment [1] is 1.56 µg/mL (≈ 4.41 µM).

Take `Nc1nc(NCCCn2nccn2)ccc1C(=O)NCc1ccc(Oc2ccccc2)s1` [Example A-81, 2-Amino-N-(5-phenoxy-thiophen-2-ylmethyl)-6-(3-[1,2,3]-triazol-2-yl-propylamino)-nicotinamide]: the MIC in experiment [1] amounted to 3.13 µg/mL (≈ 6.96 µM); in experiment [2], 6.25 µg/mL (≈ 13.9 µM).

Turning to `O=C(NCc1cccc(-c2ccccc2)c1)c1ccc2ncccc2c1` [Example E-13, Quinoline-6-carboxylic acid (biphenyl-3-ylmethyl)-amide], the MIC in experiment [1] stood at 0.78 µg/mL (≈ 2.3 µM); in experiment [2] it was 1.56 µg/mL (≈ 4.61 µM).

On to `Cc1ccc(C(=O)NCc2ccc(OCc3ccccc3)cc2)c(N)n1` [Example A-37, 2-Amino-N-(4-benzyloxy-benzyl)-6-methyl-nicotinamide], for which the results for the MIC in experiment [1] and in experiment [2] were 0.39 µg/mL (≈ 1.12 µM) and 3.13 µg/mL (≈ 9.01 µM), respectively.

`Cc1ccc(Cc2ccc(CNC(=O)c3ccc4ncccc4c3)s2)s1` [Example E-73, Quinoline-6-carboxylic acid (5-(5-methyl-thiophen-2-ylmethyl)-thiophen-2-ylmethyl)-amide]: the values for the MIC in experiment [1] and in experiment [2] were 0.2 µg/mL (≈ 0.528 µM) and 0.78 µg/mL (≈ 2.06 µM), respectively.

In experiment [1], `O=C(NCc1cccc(Oc2ccccc2)c1)c1ccc2cnccc2c1` [Example G-1, Isoquinoline-6-carboxylic acid 3-phenoxybenzylamide] came in with a minimum inhibitory concentration (MIC) of 6.25 µg/mL (≈ 17.6 µM).

In turn, `COCCCc1ccc(C(=O)NCc2ccc(Oc3ccccc3)s2)c(N)n1` [Example A-124, 2-Amino-6-(3-methoxy-propyl)-N-(5-phenoxy-thiophen-2-ylmethyl)-nicotinamide] came in with an MIC in experiment [1] of 1.56 µg/mL (≈ 3.92 µM).

For `Nc1ncccc1C(=S)NCc1ccc(OCc2ccccc2)cc1` [Example A-22, 2-Amino-N-(4-benzyloxy-benzyl)-thionicotinamide], the MIC in experiment [1] turned out to be 0.78 µg/mL (≈ 2.23 µM); in experiment [2] it was 3.13 µg/mL (≈ 8.96 µM).

Regarding `Nc1ncccc1C(=O)NCc1cc(Cl)c(Oc2ccccc2)s1` [Example A-171, 2-Amino-N-(4-chloro-5-phenoxy-thiophen-2-ylmethyl)-nicotinamide], the MIC was determined as 0.2 µg/mL (≈ 0.556 µM) in experiment [1] and 1.56 µg/mL (≈ 4.34 µM) in experiment [2].

`O=C(NCc1cccc(OCC2CC2)c1)c1ccc2ncccc2c1` [Example E-43, Quinoline-6-carboxylic acid 3-cyclopropylmethoxy-benzylamide]: the MIC in experiment [1] was found to be 0.39 µg/mL (≈ 1.17 µM).

Turning to `CO/N=C(\NCc1ccc(OCc2ccccc2)cc1)c1ccc2ncccc2c1` [Example E-44, N-(4-Benzyloxy-benzyl)-N′-methoxy-quinoline-6-carboxamidine], the MIC in experiment [1] was 3.13 µg/mL (≈ 7.87 µM).

As to `O=C(NCc1cccc(Oc2ccccc2)c1)c1ccc2nnccc2c1` [Example F-1, Cinnoline-6-carboxylic acid 3-phenoxy-benzylamide], the MIC in experiment [1] came out at 3.13 µg/mL (≈ 8.81 µM).

Take `O=C(NCc1cccc(Oc2ccccc2)c1)c1ccc2[nH]ccc2c1` [Example V-1, 1H-Indole-5-carboxylic acid 3-phenoxybenzylamide]: in experiment [2], the MIC worked out at 6.25 µg/mL (≈ 18.3 µM).

In the case of `CNc1ncccc1C(=O)NCc1ccc(Oc2ccccc2)s1` [Example A-136, 2-Methylamino-N-(5-phenoxy-thiophen-2-ylmethyl)-nicotinamide], in experiment [1], the MIC stood at 1.56 µg/mL (≈ 4.6 µM).

Values taken from patent US7932272B2, “Antifungal agent containing heterocyclic compound” (Eisai R&D Management Co., Ltd., priority 2003, dated 2011).
